Measured values taken from US10856562B2, “Flavor composition and edible compositions containing same” (MARS, INCORPORATED, priority 2013, dated 2020).
Square brackets hold non-standard residues; d marks the D form. Ends that are not written are not given here. pGlu = O=C1CC[C@@H](C(=O)O)N1

Tested on: panelists
Test: Attribute perception scores of flavor enhancers in solution (Example 6)
Type: in vivo, human
Design: key to Metallic / Numbing / Atringent / Salt / Sweet / Sour / Bitter / Umami / Sour, mean evaluation score in solution / Numbing, mean evaluation score in solution / Astringent / Umami FF: 15-point intensity scale, 0 = none, 15 = very strong
Conditions: for Astringent / Bitter / Flinty/Mineral / Metallic / Numbing / Salt / Sour / Sweet / Umami / Umami FF / Atringent / Mineral/Flinty / Umami/brothy: solution
Description: Descriptive attributes (e.g., taste, flavor and chemical feeling factors) of three use levels of pGlu-Cys (FE-35), pGlu-Cys-Gly (FE-36), pGlu-Cys-Cys (FE-37), pGlu-Cys-Val (FE-38) and pGlu-Val-Cys (UE-30) flavor composition peptides were determined. The three use levels were as follows: 1.0 ppb, 10.0 ppb and 100.0 ppb.
Data was collected for the attributes of the product in-mouth for the use levels according to the following protocol: • The samples were analyzed for flavor by six to nine members of a panel, trained and experienced in flavor evaluation using the Spectrum™ method. Samples were evaluated across multiple panel sessions. • The strength of each attribute was rated on a 15-point scale, where 0=none and 15=very strong. • This scale incorporates the ability to use tenths of a point and therefore has the potential of 150 scale differentiations. • The scale may be expanded beyond 15 points to include extreme ratings if necessary.
A summary of the concentrations of NaCl, water and flavor composition peptides in the solution samples is described in table 24.
The panelists evaluated each sample for the attributes described by table 25.

[1] = 10.0 ppb, mean evaluation score
[2] = 100.0 ppb, mean evaluation score
[3] = Concentration 1, MAX, 15-point scale
[4] = Concentration 1, MEAN, 15-point scale
[5] = Concentration 1, MIN, 15-point scale
[6] = Concentration 10, MAX, 15-point scale
[7] = Concentration 10, MEAN, 15-point scale
[8] = Concentration 10, MIN, 15-point scale
[9] = Concentration 100, MAX, 15-point scale
[10] = Concentration 100, MEAN, 15-point scale
[11] = Concentration 100, MIN, 15-point scale

[pGlu]-Cys-Cys (cysteine pairing not given here) [FE-37]
1.6: Umami FF [2] | Umami [10]
1.3: Umami FF (1.0 ppb, mean evaluation score) | Umami FF [1] | Umami [4] | Umami [7]
3.0: Salt [1] | Salt [7] | Umami [9]
0.2: Umami [1] | Sweet [2] | Umami/brothy [7] | Sweet [10]
increases very slightly by 100 ppb: Umami feeling factor in solution as the concentration increases (1.0 to 100 ppb)
3.5: Salt [6]
0.7: Flinty/Mineral (1.0 ppb, mean evaluation score) | Mineral/Flinty [4]
increase very slightly: Mineral/Flinty aromatic in solution as the concentration increases (1.0 to 100 ppb) | Umami aromatic in solution as the concentration increases (1.0 to 100 ppb) | Umami feeling factor in solution as the concentration increases (1.0 to 100 ppb, listed as FE 37)
1.5: Mineral/Flinty [3] | Mineral/Flinty [9] | Salt [11]
4.5: Salt [9]
shows no distinct pattern: Salt perception level in solution as the concentration increases (1.0 to 100 ppb)
0.9: Flinty/Mineral [2] | Mineral/Flinty [10]
2.5: Umami [6] | Salt [8]
0.0: Astringent (1.0 ppb, mean evaluation score) | Bitter (1.0 ppb, mean evaluation score) | Metallic (1.0 ppb, mean evaluation score) | Numbing (1.0 ppb, mean evaluation score) | Sour (1.0 ppb, mean evaluation score) | Sweet (1.0 ppb, mean evaluation score) | Astringent [1] | Bitter [1] | Metallic [1] | Numbing [1] | Sour [1] | Astringent [2] | Bitter [2] | Numbing [2] | Sour [2] | Atringent [3] | Metallic [3] | Numbing [3] | Sour [3] | Sweet [3] | Atringent [4] | Bitter [4] | Metallic [4] | Numbing [4] | Sour [4] | Sweet [4] | Atringent [5] | Bitter [5] | Metallic [5] | Mineral/Flinty [5] | Numbing [5] | Sour [5] | Sweet [5] | Umami [5] | Umami/brothy [5] | Atringent [6] | Bitter [6] | Metallic [6] | Numbing [6] | Sour [6] | Atringent [7] | Bitter [7] | Metallic [7] | Numbing [7] | Sour [7] | Atringent [8] | Bitter [8] | Metallic [8] | Mineral/Flinty [8] | Numbing [8] | Sour [8] | Sweet [8] | Umami [8] | Umami/brothy [8] | Atringent [9] | Bitter [9] | Numbing [9] | Sour [9] | Atringent [10] | Bitter [10] | Numbing [10] | Sour [10] | Atringent [11] | Bitter [11] | Metallic [11] | Mineral/Flinty [11] | Numbing [11] | Sour [11] | Sweet [11] | Umami [11] | Umami/brothy [11]
0.8: Flinty/Mineral [1] | Umami/brothy [3] | Sweet [6] | Mineral/Flinty [7] | Metallic [9]
2.8: Salt [2] | Salt [3] | Salt [10]
00: Bitter [3]
1.0: Mineral/Flinty [6] | Umami/brothy [6] | Sweet [9] | Umami/brothy [9]
0.1: Umami (1.0 ppb, mean evaluation score) | Sweet [1] | Metallic [2] | Umami/brothy [4] | Sweet [7] | Metallic [10]
0.5: Umami [2] | Umami/brothy [10]
2.0: Umami [3] | Salt [5]
2.4: Salt (1.0 ppb, mean evaluation score) | Salt [4]

[pGlu]-Cys-Gly [FE-36]
0.8: Flinty/Mineral [1] | Flinty/Mineral [2] | Metallic [3] | Umami/brothy [6] | Mineral/Flinty [7] | Mineral/Flinty [10]
0.9: Umami FF [1] | Umami [7]
0.7: Flinty/Mineral (1.0 ppb, mean evaluation score) | Mineral/Flinty [4]
0.0: Astringent (1.0 ppb, mean evaluation score) | Bitter (1.0 ppb, mean evaluation score) | Numbing (1.0 ppb, mean evaluation score) | Sour (1.0 ppb, mean evaluation score) | Astringent [1] | Bitter [1] | Metallic [1] | Numbing [1] | Sour [1] | Sweet [1] | Astringent [2] | Bitter [2] | Metallic [2] | Numbing [2] | Sour [2] | Sweet [2] | Umami [2] | Atringent [3] | Bitter [3] | Numbing [3] | Sour [3] | Atringent [4] | Bitter [4] | Numbing [4] | Sour [4] | Atringent [5] | Bitter [5] | Metallic [5] | Mineral/Flinty [5] | Numbing [5] | Sour [5] | Sweet [5] | Umami/brothy [5] | Atringent [6] | Bitter [6] | Metallic [6] | Numbing [6] | Sour [6] | Sweet [6] | Atringent [7] | Bitter [7] | Metallic [7] | Numbing [7] | Sour [7] | Sweet [7] | Atringent [8] | Bitter [8] | Metallic [8] | Mineral/Flinty [8] | Numbing [8] | Sour [8] | Sweet [8] | Umami [8] | Umami/brothy [8] | Atringent [9] | Bitter [9] | Metallic [9] | Numbing [9] | Sour [9] | Sweet [9] | Umami/brothy [9] | Atringent [10] | Bitter [10] | Metallic [10] | Numbing [10] | Sour [10] | Sweet [10] | Umami/brothy [10] | Atringent [11] | Bitter [11] | Metallic [11] | Mineral/Flinty [11] | Numbing [11] | Sour [11] | Sweet [11] | Umami/brothy [11]
2.3: Salt [6]
1.5: Umami FF (1.0 ppb, mean evaluation score) | Umami [4] | Mineral/Flinty [6] | Salt [8] | Salt [11]
1.9: Salt [1] | Salt [7]
No distinct patterns are seen: Patterns of attributes in solution as concentrations increase (1.0 to 100 ppb)
1.6: Umami FF [2] | Umami [10]
0.5: Umami [11]
2.5: Salt [5]
0.3: Umami (1.0 ppb, mean evaluation score) | Umami/brothy [4]
0.2: Sweet (1.0 ppb, mean evaluation score) | Sweet [4]
1.0: Mineral/Flinty [3] | Sweet [3] | Umami/brothy [3] | Umami [5] | Mineral/Flinty [9]
2.6: Salt (1.0 ppb, mean evaluation score) | Salt [4]
3.0: Salt [3] | Salt [9] | Umami [9]
0.1: Metallic (1.0 ppb, mean evaluation score) | Umami [1] | Metallic [4] | Umami/brothy [7]
2.0: Umami [3] | Umami [6]
2.1: Salt [2] | Salt [10]
